Results published in patent US20250051327A1, “MALT-1 MODULATORS” (EXSCIENTIA AI LIMITED, priority 2020, published 2025).

Biological target: Recombinant human MALT-1 (amino acids 340-824) (Homo sapiens (Human), UniProt Q9UDY8)
Experiment: MALT-1 inhibition assay (fluorogenic substrate Ac-LRSR-Rh110-DP)
Assay type: biochemical
Conditions: recombinant human MALT-1, substrate Ac-LRSR-Rh110-DP
Protocol: MALT-1 paracaspase activity was measured using the fluorogenic substrate Ac-LRSR-Rh110-DP (purchased from Biosantan GmbH). […] The reaction was initiated by addition of substrate. Final concentrations of MALT-1 and substrate were 3 nM and 10 μM respectively. Reactions were incubated in the dark for 60 minutes at 25° C. […] Percent inhibition values were calculated from relative fluorescence units at different doses and fitted to a 4-parameter logistic curve to determine IC50 values (see Table 1).

Recombinant human MALT-1 (amino acids 340-824), sequence (Q9UDY8 340-824): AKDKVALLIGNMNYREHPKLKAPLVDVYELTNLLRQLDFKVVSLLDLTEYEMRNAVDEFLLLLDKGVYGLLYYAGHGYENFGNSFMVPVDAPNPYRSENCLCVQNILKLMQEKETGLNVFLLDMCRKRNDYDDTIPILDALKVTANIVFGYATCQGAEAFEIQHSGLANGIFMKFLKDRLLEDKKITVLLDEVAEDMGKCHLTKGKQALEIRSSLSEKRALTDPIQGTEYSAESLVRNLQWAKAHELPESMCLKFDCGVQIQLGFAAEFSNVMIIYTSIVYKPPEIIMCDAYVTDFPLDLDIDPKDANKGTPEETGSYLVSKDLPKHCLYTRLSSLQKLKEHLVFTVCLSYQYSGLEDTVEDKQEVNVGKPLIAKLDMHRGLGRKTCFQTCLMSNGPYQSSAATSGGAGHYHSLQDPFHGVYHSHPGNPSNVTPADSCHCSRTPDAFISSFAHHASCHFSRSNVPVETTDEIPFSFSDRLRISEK

IC50 [nM]	Structure (SMILES)
248	C[C@H]1CCc2c(cnc3cc(Cl)nn23)N1c1ccc([C@H](N(C)C(=O)[C@H]2CC[S@](=N)(=O)CC2)C(F)(F)F)cc1 (relative stereo) [CPD0074564, (1rel r 4rel r) N-[(1S)-1-[4-[(11-rel S)-4-chloro-11-methyl-2,3,7,10-tetrazatricyclo[7.4.0.0^2,6]trideca-1(9),3,5,7-tetraen-10-yl]phenyl]-2,2,2-trifluoro-ethyl]-1-imino-N-methyl-1-oxo-thiane-4-carboxamide]
124	COc1ccc2ncc(Nc3ccc([C@H](N(C)C(=O)C4CCS(=O)(=O)CC4)C(F)(F)F)cc3)c([C@H](C)N)c2n1 (relative stereo) [CPD0084307, N-[(1 S)-1-[4-[[4-[(1rel S)-1-aminoethyl]-6-methoxy-1,5-naphthyridin-3-yl]amino]phenyl]-2,2,2-trifluoroo-ethyl]-N-methyl-1,1-dioxo-thiane-4-carboxamide]
45	CO[C@@H](C)c1c(Nc2ccc([C@H](N(C)C(=O)[C@H]3CCC(=O)N3)C(F)(F)F)cc2)cnn2cc(Cl)nc12 [CPD0082469, (2R)-N-[(1S)-1-[4-[[2-chloro-8-[(1 S)-1-methoxyethyl]imidazo[1,2-b]pyridazin-7-yl]amino]phenyl]-2,2,2-trifluoro-ethyl]-N-methyl-5-oxo-pyrrolidine-2-carboxamide]
46	C[C@@H]1CCN(c2ccc([C@H](N(C)C(=O)[C@@H]3CNC(=O)C3)C(F)(F)F)cc2)c2cnc3cc(Cl)nn3c21 [CPD0074548]
274	COc1ccc2ncc(Nc3ccc([C@@H](N(C)C(=O)[C@H]4CC[S@](=N)(=O)CC4)C(F)(F)F)cc3)c([C@@H](C)OC)c2n1 (stereo in doubt) [CPD0077189, (1 rel-s,4rel-s)-1-imino-N-methyl-1-oxo-N-[(1R)-2,2,2-trifluoro-1-[4-({6-methoxy-4-[(1 rel-R)-1-methoxyethyl]-1,5-naphthyridin-3-yl}amino)phenyl]ethyl]-1λ^6-thiane-4-carboxamide]
109	COc1ccc2ncc(Nc3ccc([C@H](N(C)C(=O)C4CCS(=O)(=O)CC4)C(F)(F)F)cc3)c(C3(F)COC3)c2n1 [CPD0076413, N-methyl-1,1-dioxo-N-[(1S)-2,2,2-trifluoro-1-[4-[[4-(3-fluorooxetan-3-yl)-6-methoxy-1,5-naphthyridin-3-yl]amino]phenyl]ethyl]thiane-4-carboxamide]

The remaining lines, values behind:

Structure (SMILES)	IC50 [nM]
CN(C(=O)[C@@H]1CCN(C(=O)C2(O)CC2)C1)[C@@H](c1ccc(N2CCCc3c2cnc2cc(Cl)nn32)cc1)C(F)(F)F [CPD0073978, (3rel-R)-N-[(1S)-1-[4-(4-chloro-2,3,7,10-tetrazatricyclo[7.4.0.0^2,6]trideca-1(9),3,5,7-tetraen-10-yl)phenyl]-2,2,2-trifluoro-ethyl]-1-(1-hydroxycyclopropanecarbonyl)-N-methyl-pyrrolidine-3-carboxamide]	54
CN1C[C@@H](C(=O)N(C)[C@@H](c2ccc(N3CCCc4c3cnc3cc(Cl)nn43)cc2)C(F)(F)F)NC1=O (relative stereo) [CPD0075574, (4rel S)-N-[(1S)-1-[4-(4-chloro-2,3,7,10-tetrazatricyclo[7.4.0.0^2,6]trideca-1(9),3,5,7-tetraen-10-yl)phenyl]-2,2,2-trifluoro-ethyl]-N,1-dimethyl-2-oxo-imidazolidine-4-carboxamide]	80
CN(C(=O)[C@H]1C[C@@H](O)C1)[C@@H](c1ccc(N2CCCc3c2cnc2cc(Cl)nn32)cc1)C(F)(F)F [CPD0074538]	57
CN(C(=O)C1CC(O)C1)[C@@H](c1ccc(N2CCCc3c2cnc2cc(Cl)nn32)cc1)C(F)(F)F (some centres unmarked) [CPD0073055]	46
CN(C(=O)[C@H]1CNC(=O)C1)[C@H](c1ccc(N2CCCc3c2cnc2cc(Cl)nn32)cc1)C(F)(F)F (stereo in doubt) [CPD0077244, (3 rel-R)—N-[(1R)-1-[4-(4-chloro-2,3,7,10-tetrazatricyclo[7.4.0.0^2,6]trideca-1(9),3,5,7-tetraen-10-yl)phenyl]-2,2,2-trifluoro-ethyl]-N-methyl-5-oxo-pyrrolidine-3-carboxamide]	581
